Assay results: US20040171543A1, “Matrix metalloproteinase inhibitors and methods for identification of lead compounds” (priority 2002, published 2004)
Marks after values point to notes of the source that are not given here.

Assays:
[1] = molecular target: T1, MMP-2 (Homo sapiens, UniProt P08253); conditions: Curtin et al.; cited from earlier work
T1 sequence (P08253 110-660): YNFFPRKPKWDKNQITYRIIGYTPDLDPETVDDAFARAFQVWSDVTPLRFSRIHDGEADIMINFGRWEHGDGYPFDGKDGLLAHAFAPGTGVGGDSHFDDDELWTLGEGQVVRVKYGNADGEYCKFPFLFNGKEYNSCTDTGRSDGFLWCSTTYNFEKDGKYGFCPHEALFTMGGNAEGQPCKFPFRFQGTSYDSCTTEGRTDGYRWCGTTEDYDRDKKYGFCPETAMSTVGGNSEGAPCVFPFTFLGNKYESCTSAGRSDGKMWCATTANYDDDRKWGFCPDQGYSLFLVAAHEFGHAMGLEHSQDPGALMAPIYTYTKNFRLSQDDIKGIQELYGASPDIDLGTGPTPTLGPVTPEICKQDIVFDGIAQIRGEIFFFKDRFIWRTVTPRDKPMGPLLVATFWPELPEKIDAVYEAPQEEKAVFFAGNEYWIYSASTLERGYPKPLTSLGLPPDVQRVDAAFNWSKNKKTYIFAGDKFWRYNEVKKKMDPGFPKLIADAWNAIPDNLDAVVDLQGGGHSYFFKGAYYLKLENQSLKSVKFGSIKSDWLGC

[2] = tested on: MMP-2 and MMP-9; conditions: Wada et al.; cited from earlier work
[3] = tested on: tumor growth; conditions: murine syngenetic tumor growth model; cited from earlier work
[4] = molecular target: MMP-12 (Homo sapiens, UniProt P39900); conditions: literature; cited from earlier work
MMP-12, sequence (P39900 106-470): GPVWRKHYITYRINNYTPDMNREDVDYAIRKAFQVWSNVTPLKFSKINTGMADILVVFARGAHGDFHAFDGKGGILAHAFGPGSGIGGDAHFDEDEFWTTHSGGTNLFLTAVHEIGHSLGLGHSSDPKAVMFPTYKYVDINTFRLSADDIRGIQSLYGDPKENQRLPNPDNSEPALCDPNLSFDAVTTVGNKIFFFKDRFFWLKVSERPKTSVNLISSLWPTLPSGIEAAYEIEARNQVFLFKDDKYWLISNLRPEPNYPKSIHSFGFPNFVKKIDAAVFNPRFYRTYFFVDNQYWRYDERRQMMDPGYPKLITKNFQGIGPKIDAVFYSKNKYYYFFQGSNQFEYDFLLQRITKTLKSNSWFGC

[5] = molecular target: MMP-13 (Homo sapiens, UniProt P45452); conditions: Chen et al.; cited from earlier work
[6] = molecular target: T2, MMP-1 (Homo sapiens, UniProt P03956); conditions: Chen et al.; cited from earlier work
T2 sequence (P03956 100-469): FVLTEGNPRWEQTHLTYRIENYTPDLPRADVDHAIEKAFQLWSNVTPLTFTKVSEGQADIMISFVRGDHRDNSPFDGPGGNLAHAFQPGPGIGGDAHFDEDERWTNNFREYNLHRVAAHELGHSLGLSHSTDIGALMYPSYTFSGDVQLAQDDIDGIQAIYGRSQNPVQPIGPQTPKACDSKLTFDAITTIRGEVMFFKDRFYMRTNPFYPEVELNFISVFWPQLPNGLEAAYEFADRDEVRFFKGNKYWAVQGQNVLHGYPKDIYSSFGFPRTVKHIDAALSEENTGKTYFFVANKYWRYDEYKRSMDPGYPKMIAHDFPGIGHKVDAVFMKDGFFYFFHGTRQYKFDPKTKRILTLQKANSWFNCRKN

[7] = molecular target: TACE (Homo sapiens, UniProt P78536); conditions: Chen et al.; cited from earlier work
TACE, sequence (P78536 215-824): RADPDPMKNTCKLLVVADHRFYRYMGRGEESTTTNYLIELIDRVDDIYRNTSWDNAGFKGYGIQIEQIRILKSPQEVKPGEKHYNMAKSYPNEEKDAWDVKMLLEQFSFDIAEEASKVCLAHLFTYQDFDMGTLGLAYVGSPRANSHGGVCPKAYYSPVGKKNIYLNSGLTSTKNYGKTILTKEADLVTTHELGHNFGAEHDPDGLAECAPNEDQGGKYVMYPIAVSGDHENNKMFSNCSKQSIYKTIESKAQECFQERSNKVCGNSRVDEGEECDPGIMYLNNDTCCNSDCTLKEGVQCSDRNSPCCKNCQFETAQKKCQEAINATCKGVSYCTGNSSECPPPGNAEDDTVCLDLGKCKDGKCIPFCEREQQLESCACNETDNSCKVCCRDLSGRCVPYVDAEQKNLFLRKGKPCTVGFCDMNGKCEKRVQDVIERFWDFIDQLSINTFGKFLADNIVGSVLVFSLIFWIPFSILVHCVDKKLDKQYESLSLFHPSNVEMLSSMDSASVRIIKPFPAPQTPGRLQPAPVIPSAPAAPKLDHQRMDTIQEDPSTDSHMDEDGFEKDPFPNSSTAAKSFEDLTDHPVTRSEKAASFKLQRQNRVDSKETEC

[8] = molecular target: MMP-9 (Homo sapiens, UniProt P14780); conditions: Chen et al.; cited from earlier work
MMP-9, sequence (P14780 94-707): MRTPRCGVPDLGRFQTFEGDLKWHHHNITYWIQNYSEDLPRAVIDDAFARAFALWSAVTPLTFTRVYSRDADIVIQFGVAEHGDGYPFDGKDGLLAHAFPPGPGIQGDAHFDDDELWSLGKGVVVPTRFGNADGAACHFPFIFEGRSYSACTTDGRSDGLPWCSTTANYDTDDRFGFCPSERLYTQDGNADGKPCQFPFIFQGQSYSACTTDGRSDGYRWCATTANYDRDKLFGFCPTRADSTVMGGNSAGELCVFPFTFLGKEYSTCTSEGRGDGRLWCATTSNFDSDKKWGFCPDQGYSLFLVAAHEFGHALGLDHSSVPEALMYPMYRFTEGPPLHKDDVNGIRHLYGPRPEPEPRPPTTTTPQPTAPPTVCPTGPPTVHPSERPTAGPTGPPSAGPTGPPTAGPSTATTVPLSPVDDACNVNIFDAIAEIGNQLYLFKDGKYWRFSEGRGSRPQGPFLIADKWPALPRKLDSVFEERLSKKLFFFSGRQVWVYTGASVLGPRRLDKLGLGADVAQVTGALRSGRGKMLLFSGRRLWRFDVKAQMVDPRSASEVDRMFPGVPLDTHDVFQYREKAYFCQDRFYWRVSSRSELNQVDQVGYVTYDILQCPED

[9] = molecular target: T3, MMP-13 catalytic domain (MMP-13CD) (Homo sapiens, UniProt P45452); assay: Fluorigenic peptide-1 substrate based assay, MMP-13CD, with/without AcNHOH; type: biochemical; conditions: IC50 with AcNHOH divided by IC50 without
T3 construct: The catalytic domain of the MMP-13 enzyme, namely matrix metalloproteinase-13 catalytic domain (“MMP-13CD”)
Experimental: The catalytic domain of the MMP-13 enzyme, namely matrix metalloproteinase-13 catalytic domain (“MMP-13CD”), rather than the corresponding full-length enzyme, MMP-13 was used in such assay.
50 mM HEPES buffer (pH 7.0)
2% DMSO (with or without inhibitor test compound)
1. Dispensed 2 μL inhibitor test sample (in 100% DMSO) into well.
2. Added 88 μL assay mixture and mixed well, avoiding bubbles.
3. Initiated reactions with 10 μL of 5 nM MMP-13CD; mixed well, avoiding bubbles.
4. Immediately measured the kinetics of the reactions at room temperature.
Alternatively, an endpoint read can also be used to determine reaction velocity provided the initial fluorescence of the solution, as recorded before addition of enzyme, is subtracted from the final fluorescence of the reaction mixture.

CC1(C)NC(=O)N(C[C@@H](COc2ccc(-c3ccc(OC(F)(F)F)cc3)cc2)N(O)C=O)C1=O
Selectivity for MMP-2 versus MMP-1 [1]: highly selective

CC1(C)OCC([C@@H](CS(=O)(=O)c2ccc(Oc3ccc(OC(F)(F)F)cc3)cc2)N(O)C=O)O1 (some centres unmarked)
Selectivity for inhibition of MMP-2 and MMP-9 over MMP-1 [2]: selective
Antitumor activity [3]: demonstrated antitumor activity

COc1ccc(S(=O)(=O)N(Cc2cccnc2)[C@@H](C(=O)NO)C(C)C)cc1 [CGS27023A]
IC50 [4]: 2 nM

O=C(NCCCCN1CCOCC1)c1cc2ccccc2o1 [CL-82198]
Inhibition of MMP-13 [5]: weak inhibition
Activity against MMP-1 [6]: complete lack of activity
Activity against TACE [7]: complete lack of activity
Activity against MMP-9 [8]: complete lack of activity

Nc1ccc(-c2ccc(S(N)(=O)=O)cc2)cc1 [Entry 1]
IC50 Ratio (±) [9]: 0.47^a

NS(=O)(=O)c1ccc(-c2ccc([N+](=O)O)cc2)cc1 [Entry 2]
IC50 Ratio (±) [9]: 0.04

COc1ccc(NC(=O)Nc2ccc3nc(C)cc(N)c3c2)cc1 [Entry 3]
IC50 Ratio (±) [9]: 0.56

Cc1cc(O)nc(SCc2ccc(Cl)cc2)n1 [Entry 4]
IC50 Ratio (±) [9]: 0.07^a

Cc1c(-c2ccc(-n3ccnc3)cc2)[nH][nH]c1=O [Entry 5]
IC50 Ratio (±) [9]: 1.16

CCOC(=O)/C=C/c1ccc(-n2ccnc2)cc1 [Entry 6]
IC50 Ratio (±) [9]: 0.82
